Target: MAPK14 (UniProt Q16539)
Assay: Inhibition of MAPK14 Kinase Activity

Sequence of MAPK14 (Q16539 whole entry, looked up): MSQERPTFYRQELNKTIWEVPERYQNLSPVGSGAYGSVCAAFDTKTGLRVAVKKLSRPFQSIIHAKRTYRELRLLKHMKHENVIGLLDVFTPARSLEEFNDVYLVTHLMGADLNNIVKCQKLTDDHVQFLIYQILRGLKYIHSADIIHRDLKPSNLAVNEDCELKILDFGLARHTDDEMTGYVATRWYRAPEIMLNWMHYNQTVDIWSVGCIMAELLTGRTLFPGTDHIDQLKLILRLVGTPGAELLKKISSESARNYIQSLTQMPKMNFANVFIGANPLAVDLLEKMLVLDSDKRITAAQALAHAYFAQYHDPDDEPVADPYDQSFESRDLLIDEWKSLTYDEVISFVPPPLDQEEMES

For NC(=O)N(Cc1c(F)cccc1F)c1ccc(CO)c(-c2ccccc2Cl)n1, the IC50 was > 100 µM.
Cc1ccccc1-c1cccc(N(Cc2ccccc2Cl)C(N)=O)n1 showed an IC50 of 0.873 µM.
NC(=O)N(Cc1c(F)cccc1F)c1ccc(CO)c(-c2ccc(F)cc2F)n1 showed an IC50 of 1.58 µM.
In the case of Cc1cc(F)ccc1-c1cccc(N(Cc2ccccc2Cl)C(N)=O)n1, the IC50 is reported as > 100 µM.
With NC(=O)N(Cc1ccccc1Cl)c1cccc(-c2ccccc2F)n1 the IC50 was > 100 µM.
In the case of NC(=O)N(Cc1ccccc1Cl)c1cccc(-c2ccc(F)cc2)n1, the IC50 is reported as > 100 µM.
With Cc1cc(F)ccc1-c1nc(N(Cc2c(Cl)cccc2Cl)C(N)=O)ccc1CO the IC50 was 100 µM.
NC(=O)N(Cc1c(Cl)cccc1Cl)c1cccc(-c2c(F)cccc2F)n1 showed an IC50 of 12.6 µM.
NC(=O)N(Cc1ccccc1Cl)c1cccc(-c2ccccc2Cl)n1 showed an IC50 of 0.9 µM.
Cc1ccccc1-c1cccc(N(Cc2ccccc2F)C(N)=O)n1 showed an IC50 of 0.888 µM.
In the case of COc1ccccc1-c1cccc(N(Cc2ccccc2F)C(N)=O)n1, the IC50 is reported as > 100 µM.
For NC(=O)N(Cc1c(Cl)cccc1Cl)c1cccc(-c2ccccc2Cl)n1, the IC50 was > 100 µM.
With Cc1cc(F)ccc1-c1cccc(N(Cc2c(F)cccc2F)C(N)=O)n1 the IC50 was 2.81 µM.
NC(=O)N(Cc1ccccc1F)c1cccc(-c2ccc(F)cc2)n1 was tested, and the IC50 was > 100 µM.
NC(=O)N(Cc1ccccc1F)c1cccc(-c2ccc(Cl)cc2)n1 was tested, and the IC50 was > 100 µM.
COc1ccccc1-c1cccc(N(Cc2ccccc2Cl)C(N)=O)n1 was tested, and the IC50 was > 100 µM.
With NC(=O)N(Cc1c(Cl)cccc1Cl)c1ccc(CO)c(-c2ccccc2Cl)n1 the IC50 was > 100 µM.
NC(=O)N(Cc1ccccc1F)c1cccc(-c2ccccc2Cl)n1 showed an IC50 of 0.961 µM.
With NC(=O)N(Cc1cccc(F)c1)c1cccc(-c2ccccc2Cl)n1 the IC50 was 1.12 µM.
Cc1ccccc1-c1cccc(N(Cc2c(Cl)cccc2Cl)C(N)=O)n1 gave an IC50 of 8.91 µM.
For NC(=O)N(Cc1ccccc1Cl)c1cccc(-c2cccc(F)c2)n1, the IC50 was 79.4 µM.
COc1ccc(-c2cccc(N(Cc3ccccc3F)C(N)=O)n2)cc1 was tested, and the IC50 was > 100 µM.
With NC(=O)N(Cc1ccccc1F)c1ccc(CO)c(-c2ccccc2Cl)n1 the IC50 was 1 µM.
With NC(=O)N(Cc1ccc(F)cc1)c1cccc(-c2ccccc2Cl)n1 the IC50 was 1.13 µM.
Compound Cc1cc(F)ccc1-c1cccc(N(Cc2cccc(F)c2)C(N)=O)n1 has an IC50 of 1.25 µM.
For Cc1ccccc1-c1nc(N(Cc2c(Cl)cccc2Cl)C(N)=O)ccc1CO, the IC50 was > 100 µM.
Compound NC(=O)N(Cc1ccccc1Cl)c1cccc(-c2cc(F)ccc2F)n1 has an IC50 of 35.5 µM.
For Cc1ccccc1-c1cccc(N(Cc2c(F)cccc2F)C(N)=O)n1, the IC50 was 3.16 µM.
In the case of NC(=O)N(Cc1ccccc1Cl)c1cccc(-c2ccc(Cl)cc2)n1, the IC50 is reported as > 100 µM.
Compound NC(=O)N(Cc1ccccc1)c1cccc(-c2ccccc2Cl)n1 has an IC50 of 2.8 µM.
With Cc1cc(C)cc(-c2cccc(N(Cc3ccccc3Cl)C(N)=O)n2)c1 the IC50 was > 100 µM.
NC(=O)N(Cc1ccc(Cl)cc1Cl)c1cccc(-c2ccccc2Cl)n1 gave an IC50 of 25.1 µM.
Cc1cc(F)ccc1-c1cccc(N(Cc2c(Cl)cccc2Cl)C(N)=O)n1 was tested, and the IC50 was 2.15 µM.
Cc1ccccc1-c1cccc(N(Cc2cccc(F)c2)C(N)=O)n1 was tested, and the IC50 was 0.751 µM.
Compound NC(=O)N(Cc1ccc(Cl)cc1Cl)c1cccc(-c2ccc(Cl)cc2)n1 has an IC50 of 100 µM.
Cc1ccccc1-c1cccc(N(CCc2ccccc2)C(N)=O)n1 gave an IC50 of 0.978 µM.
With Cc1cc(F)ccc1-c1nc(N(Cc2c(F)cccc2F)C(N)=O)ccc1CO the IC50 was 2.2 µM.

Reference: the Kinase Knowledgebase extract (Sharma et al. 2016)
